{
  "source": "paper PMC10822168",
  "about": "“Development of potent isoflavone-based formyl peptide receptor 1 (FPR1) antagonists and their effects in gastric cancer cell models” (European journal of medicinal chemistry, 2023)",
  "type_in_all_cases": "cell-based, human",
  "key": {"angiopoietin 2 (Ang2) [1]": {"tested_on": "angiopoietin 2 (Ang2)", "assay": "ELISA of angiopoietin 2 secretion in culture medium of NCl–N87 cells", "conditions": "NCl–N87, fMLF 10 nM, 48 h", "procedure": "(§1) Secretion of VEGFA and angiopoietin 2 (Ang2) in the culture medium of NCl–N87 and AGS cells was assessed after 48 h of drug treatment using ELISA methods (Fig. 10). […] Once again, the effects were more pronounced in NCl–N87 cells than in AGS, and the effect of 25a was more pronounced as compared to 24a. The co-administration of fMLF (10 nM) partially counteracted the effects.\n(§2) Fig. 10. Effect of 24a and 25a on the secretion of VGFA (A) and Ang2 (B) in NCl–N87 and AGS cell lines. The ELISA assays were assessed on cells after 48 h of drug treatment with fMLF (10 nM) and 24a or 25a (1, 5 μM) administrated alone or combining the lowest dose of 24a or 25a with fMLF. The concentration of VEGFA (A) or Ang2 (B) was determined in the medium and normalized for the cell number. The values ± SD, obtained from three independent experiments expressed as pg/mL, were shown in the relative graphs. Statistical analysis was assessed by comparing the values obtained using a single drug treatment to those of corresponding untreated cells and the combined treatments to those of the single treatments. **p < 0.001; ***p < 0.0002; ****p < 0.0001. […]"}, "angiopoietin 2 (Ang2) [2]": {"tested_on": "angiopoietin 2 (Ang2)", "assay": "ELISA of angiopoietin 2 secretion in culture medium of AGS cells", "conditions": "fMLF 10 nM, 48 h", "procedure": "as §1, §2"}, "NCl–N87 cells": {"tested_on": "NCl–N87 cells", "assay": "Scratch migration assay in NCl–N87 cells", "conditions": "NCl–N87, fMLF 10 nM, 24 h incubation", "from_the_text": "The results are representative of three independent experiments."}, "ANGPT2 mRNA": {"tested_on": "ANGPT2 mRNA", "assay": "Real-time PCR of ANGPT2 mRNA expression in NCl–N87 and AGS cells", "conditions": "24 h, fMLF 10 nM, antagonists 1 or 2 μM, normalized to GAPDH, untreated = 1", "from_the_text": "(§3) It has been reported that FPR1 can exert a tumor suppressor function in human GC by inhibiting angiogenesis and that silencing of the receptor increases the constitutive proangiogenic potential of GC cells. Therefore, we assessed the effect of 24a and 25a on the mRNA expression level and secretion of the proangiogenic factors, the vascular growth factor A (VEGFA), and the angiopoietin 2. […] These effects were more pronounced in NCl–N87 cells and resulted more strongly for 25a than 24a. The values obtained after each treatment were normalized to the expression of GAPDH and compared to the reference value of the two genes in untreated cells, which were set equal to 1 (Fig. 9).\n(§4) Fig. 9. Effect of 24a and 25a on mRNA expression of VGFA and ANGPT2 in NCl–N87 and AGS cell lines. Real-time PCR experiments in NCl–N87 and AGS cells with specific primers for VEGFA and ANGPT2 genes. The mRNA expression was normalized on the GAPDH housekeeping gene. Expression analysis was performed after treatment with fMLF (10 nM) and 24a or 25a (1, 2, 5 μM) administrated alone or combining the lowest dose of 24a or 25a with fMLF. All expression values were calculated against the value of untreated PTX-sensitive cells, set equal to 1. Statistical analysis was assessed by comparing the values obtained using single drug treatment to those of corresponding untreated cells and the combined treatments to those of single treatments. The values of untreated PTX-resistant cells were compared with those of untreated PTX-sensitive ones. Data were mean ± SD (n = 3). *p < 0.05, **p < 0.001, ***p < 0.0002, ****p < 0.0001.\n(§5) Total RNA was extracted from FPR1 antagonist-treated NCl–N87 and AGS treated cells using the Qiagen RNeasy Mini Kit (Qiagen, Hilden, Germany) following the manufacturer’s instructions. Samples were retro-transcribed using the iScript Advanced cDNA Synthesis Kit (Bio-Rad Laboratories, California, USA). Real-Time-PCRs analyzed cDNA samples for the evaluation of VEGFA and ANGPT2 expression. […] Relative quantification was performed using the ddCT method."}, "VEGFA [3]": {"tested_on": "VEGFA", "assay": "ELISA of VEGFA secretion in culture medium of AGS cells", "conditions": "fMLF 10 nM, 48 h", "procedure": "as §1, §2"}, "VEGFA mRNA": {"tested_on": "VEGFA mRNA", "assay": "Real-time PCR of VEGFA mRNA expression in NCl–N87 and AGS cells", "conditions": "24 h, fMLF 10 nM, antagonists 1 or 2 μM, normalized to GAPDH, untreated = 1", "from_the_text": "as §3, §4, §5"}, "AGS cells": {"tested_on": "AGS cells", "assay": "Scratch migration assay in AGS cells", "conditions": "fMLF 10 nM, 24 h incubation", "procedure": "The effect of FPR1 blockade on cell migration was assessed using the scratch assay, an easy and well-developed method to measure cell migration in vitro. […] Conversely, 24a and 25a reduced the migration rate in a dose-dependent manner. The effect was more pronounced in NCl–N87 as compared to AGS cells. […] The effect was FPR1-mediated, as it was counterbalanced by co-administration of the agonist fMLF (10 nM).\nFig. 8. Effect of 24a and 25a on cell migration in NCl–N87 and AGS cell lines. Scratch assay assessed on cells treated with fMLF (10 nM) and 24a or 25a (1, 1.5, 2 μM) administrated alone or combining the lowest dose of 24a or 25a with fMLF. The cells were microscopically analyzed at the time of the scratch (T0) and after 24 h (T1). The relative migration rate was calculated by setting the percentage of migration of the control cells at time T1 equal to 1 and comparing the migration percentage of the cells after each drug treatment to this value. Representative original photographs (panel A) and quantitative analysis (panel B) of the cell-free scratch path ares. […] Statistical analysis was assessed by comparing the values obtained using a single drug treatment to those of corresponding untreated cells and the combined treatments to those of the single treatments, *p < 0.05, **p < 0.001, ****p < 0.0001. […]"}, "VEGFA [4]": {"tested_on": "VEGFA", "assay": "ELISA of VEGFA secretion in culture medium of NCl–N87 cells", "conditions": "NCl–N87, fMLF 10 nM, 48 h", "procedure": "as §1, §2"}},
  "data": [
    {"substance": "N-formyl-methionyl-leucyl-phenylalanine [fMLF]", "values": [
      {"measurement": "reduction in the secretion of Ang2", "setting": "angiopoietin 2 (Ang2) [1]", "result": "~22", "unit": "%"},
      {"measurement": "reduction in the secretion of Ang2", "setting": "angiopoietin 2 (Ang2) [2]", "result": "~23", "unit": "%"},
      {"measurement": "increase in cell mobility", "setting": "NCl–N87 cells", "result": 41, "unit": "%"},
      {"measurement": "angiopoietin 2 (ANGPT2) mRNA expression", "setting": "ANGPT2 mRNA", "result": "reduced expression"},
      {"measurement": "reduction in the secretion of VEGFA", "setting": "VEGFA [3]", "result": "~35", "unit": "%"},
      {"measurement": "VEGFA mRNA expression", "setting": "VEGFA mRNA", "result": "reduced expression"},
      {"measurement": "increase in cell mobility", "setting": "AGS cells", "result": 32, "unit": "%"},
      {"measurement": "reduction in the secretion of VEGFA", "setting": "VEGFA [4]", "result": "approximately 40%"}
    ]}
  ]
}
